From US20020160012A1, “Vaccine chip technology exploiting immunostimulating fragment of TGF-BETA” (priority 2000, published 2002)
No end group written: not given here.

Tests used:
[1] = Clinical signs of immunised rabbits; assay type: in vivo; conditions: Example 1; subcutaneous, 3 immunisations at 2 week intervals
Excerpt: (§1) Before immunisation, a pre-immunisation serum sample (T0) of each rabbit were collected. Two weeks after the last of 3 immunisations (given at 2 week intervals) an immune serum sample (T1) was collected from each rabbit. Hereafter further immune serum samples were collected T2 (4 weeks after T1); T3 (four weeks after T2) etc.
Before immunisation, a pre-immunisation serum sample (T0) of each rabbit were collected. Before each of the following immunisations (given at 2 week intervals) an immune serum sample (T1, T2, T3 or T4 ) was collected from each rabbit. The serum sampling frequency is higher compared with example 1.
(§2) Before immunisation, a pre-immunisation serum sample (T0) of each rabbit was collected. Before each of the following immunisations (given at 2 week intervals) an immune serum sample (T1, T2, or T3) was collected from each rabbit.

parvovirus peptide [2] = assay: Rabbit immunisation with Parv or Parv+TGF-29, serum ELISA for antibody titre (Example 1); assay type: in vivo, rabbits; conditions: immune serum samples vs corresponding T0 sera; 3 subcutaneous immunisations at 2 week intervals; freunds incomplete adjuvant
Description: Both preparations were subcutaneously injected into 2 groups of rabbits. The content of each injected dose of 0.2 mL were:
The rabbits were immunised by subcuteous injection according to normal standard immunisation procedures for antibody production in rabbits at a legal laboratory animal facility.
as §1
(§3) The serum samples were analysed on an ELISA plate according to standard laboratory operations: Coating the plate bottom with parvo virus peptide derivative overnight, washings, incubation with serial dilutions of all serum samples, washings, incubation with HRP-Goat anti Rabbit Ig, washings, incubation with substrate, stop reaction with acid, and reading of the plate.

parvovirus peptide [3] = assay: Rabbit immunisation with parvovirus peptide, TGF-29 dose and Titermax adjuvant, serum ELISA (Example 3); assay type: in vivo, rabbits; conditions: bleeding T3 (6 weeks after first immunisation); 20 ug TGF-29 + 100 ug parvovirus peptide + Titermax (preparation Iris)
Description: Both preparations were subcutaneously injected into 2 groups of rabbits. Each injected dose was 0, 1 mL and the preparations for a resulting volume between 0,4 and 0,5 mL was made as follows:
The rabbits were then immunised according to the normal standard immunisation procedure for antibody production in rabbits at a legal laboratory animal facility.
as §2, §3

## Ac-CDGAVQPDGGQPAVRNER-NH2 [Parv]
[1]
  unusual clinical signs: None of the rabbits showed any unusual clinical signs
Parvovirus peptide [2]
  antibody titre to the parvovirus peptide: Non-detectable or less antibody titre to the parvovirus peptide than in the corresponding T0 sera

## ALDAAYCFRNVQDNCCLRPLYIDFKRDLG (cysteine pairing not given here) [TGF-29, N-terminal 29 amino acid fragment of mature TGF-β]
Parvovirus peptide [3]
  titer to the parvovirus peptide compared with the corresponding T0 serum: more than three 5-fold serial antiserum dilutions better
  titer to the parvovirus peptide, rank among all bleedings of the example: highest titer
